Results on 20 compounds are retold here after patent US10865216B2, “Tricyclic Gyrase inhibitors” (MERCK SHARP & DOHME CORP., priority 2012, dated 2020).

In brackets after ≈: the same amount, converted by molar mass. Where only a bound is given, the exact number is not on record here.

The test system of one assay is S. aureus ATCC 13709. Nature of the assay: MIC, S. aureus ATCC 13709. It is filed as cell-based. The note with it: for MIC Sa: Table 18, Sa; for SA MIC: Table 11, compounds wherein L = CH2.
A further assay deals with E. coli ATCC 25922. Nature of the assay: MIC, E. coli ATCC 25922. Type of assay: cell-based. Particulars: for MIC Ec: Table 18, Ec; for EC8 MIC: Table 11, L = CH2, EC8 not defined.

Take `CNc1cc(F)cc2c1[nH]c1nc(Oc3cnc(C)nc3)nc(N3CC4CC(OS(N)(=O)=O)C4C3)c12` (stereo not shown) [Compound 10.99]: in the assay on S. aureus ATCC 13709, the MIC Sa was at most 0.5 µg/mL. In addition, in the assay with E. coli ATCC 25922, the MIC Ec is at most 0.5 µg/mL.
`CNc1cc(F)cc2c1[nH]c1nc(Oc3cnc(C(C)O)nc3)nc(N(C)C)c12` (stereo not shown) [Compound 10.101] returned an MIC Sa against S. aureus ATCC 13709 of at most 0.5 µg/mL. The compound further registered an MIC Ec with E. coli ATCC 25922 of at most 0.5 µg/mL.
In the assay with S. aureus ATCC 13709, `CNc1ncc(Oc2nc(N3CCC4(CC[C@H]4N)C3)c3c(n2)[nH]c2c(NC)cc(F)cc23)cn1` (stereo partly shown) [Compound 10.102] registered an MIC Sa of at most 0.5 µg/mL. In the assay on E. coli ATCC 25922, this compound came in with an MIC Ec of at most 0.5 µg/mL.
`CNc1cc(F)c(F)c2c1[nH]c1nc(Oc3cnc(C(C)O)nc3)nc(N3CC4(CCCC4N)C3)c12` (stereo not shown) [Compound 10.103]: the MIC Sa in the assay on S. aureus ATCC 13709 was at most 0.5 µg/mL. The compound also had an MIC Ec with E. coli ATCC 25922 of at most 0.5 µg/mL.
In turn, `CNc1cc(F)cc2c1[nH]c1nc(Oc3cnc(C)nc3)nc(N3CCC(S(N)(=O)=O)C3)c12` (stereo not shown) [Compound 10.104] displayed an MIC Sa against S. aureus ATCC 13709 of at most 0.5 µg/mL. Moreover, in the assay on E. coli ATCC 25922, the MIC Ec stood at 8 µg/mL (≈ 16.9 µM).
On the same counts, the results for `CNc1cc(F)cc2c1[nH]c1nc(Oc3cnc(CN)nc3)nc(N3CCC4(CC[C@H]4N)C3)c12` (stereo partly shown) [Compound 10.105] are at most 0.5 µg/mL and 1 µg/mL (≈ 2.16 µM).
`CNc1cc(F)c(F)c2c1[nH]c1nc(Oc3cnc(C)nc3)nc(N3CCC(S(N)(=O)=O)C3)c12` (stereo not shown) [Compound 10.106] had an MIC Sa in the assay on S. aureus ATCC 13709 of at most 0.5 µg/mL. Further, the MIC Ec in the assay on E. coli ATCC 25922 amounted to 2 µg/mL (≈ 4.08 µM).
On the same counts, the results for `CNc1cc(F)c(F)c2c1[nH]c1nc(Oc3cnc(C)nc3)nc(N3CCOCC3)c12` [Compound 10.107] are at most 0.5 µg/mL and at most 0.5 µg/mL.
As for `CNc1cc(F)cc2c1[nH]c1nc(Oc3cnc4c(c3)C(=O)N(C)C4O)nc(N3C[C@H]4C[C@@H]3C[C@H]4N)c12` (stereo partly shown) [Compound 10.108], in the assay on S. aureus ATCC 13709, the MIC Sa was at most 0.5 µg/mL. Further, the MIC Ec in the assay with E. coli ATCC 25922 was over 16 µg/mL.
Taken in the same sequence, the figures for `CNc1cc(F)cc2c1[nH]c1nc(Oc3cnc4cc[s+]([O-])c4c3)nc(N3C[C@H]4C[C@@H]3C[C@H]4N)c12` (stereo partly shown) [Compound 10.109] were at most 0.5 µg/mL and at most 0.5 µg/mL.
On the same counts, the results for `C=Cc1cc(F)c(F)c2c1[nH]c1nc(Oc3cnc(C)nc3)nc(N3C[C@H]4C[C@@H]3C[C@H]4N)c12` [Compound 10.110] are at most 0.5 µg/mL and at most 0.5 µg/mL.
As to `CNc1cc(F)cc2c1[nH]c1nc(Oc3cnc4cc[s+]([O-])c4c3)nc(N3CC4(CC[C@H]4N)C3)c12` (stereo partly shown) [Compound 10.111], the MIC Sa with S. aureus ATCC 13709 was at most 0.5 µg/mL. The compound also gave an MIC Ec against E. coli ATCC 25922 of at most 0.5 µg/mL.
In the assay on S. aureus ATCC 13709, `CNc1cc(F)c(F)c2c1[nH]c1nc(Oc3cnc(C(C)O)nc3)nc(N3CCC4(CCCC4N)C3)c12` (stereo not shown) [Compound 10.112] came in with an MIC Sa of at most 0.5 µg/mL. The compound further registered an MIC Ec against E. coli ATCC 25922 of at most 0.5 µg/mL.
Compound `CNc1cc(F)cc2c1[nH]c1nc(Oc3cnc(C)nc3)nc(N3CCC(C(C)=O)C3)c12` (stereo not shown) [Compound 10.113] gave an MIC Sa with S. aureus ATCC 13709 of at most 0.5 µg/mL. Moreover, the MIC Ec in the assay with E. coli ATCC 25922 was at most 0.5 µg/mL.
In the case of `CNc1cc(F)cc2c1[nH]c1nc(Oc3cnc(C)nc3)nc(N3C[C@H]4C[C@@H]3C[C@H]4NCCO)c12` [Compound 10.114], in the assay on S. aureus ATCC 13709, the MIC Sa is at most 0.5 µg/mL. Moreover, in the assay with E. coli ATCC 25922, the MIC Ec is at most 0.5 µg/mL.
In turn, `CNc1cc(F)cc2c1[nH]c1nc(Oc3cnc(C)nc3)nc(N3C[C@H]4C[C@@H]3C[C@H]4N(CCO)CCO)c12` [Compound 10.115] yielded an MIC Sa in the assay with S. aureus ATCC 13709 of at most 0.5 µg/mL. Also, in the assay on E. coli ATCC 25922, the MIC Ec turned out to be 1 µg/mL (≈ 1.91 µM).
On the same counts, the results for `CNc1cc(F)cc2c1[nH]c1nc(Oc3cnc([C@@H](C)O)nc3)nc(N3CCOCC3)c12` [Compound 10.116] are at most 0.5 µg/mL and at most 0.5 µg/mL.
Taken in the same sequence, the figures for `CNc1cc(F)cc2c1[nH]c1nc(Oc3cnc(C(C)OC)nc3)nc(N3CC4CC4C3)c12` (stereo not shown) [Compound 10.117] were at most 0.5 µg/mL and at most 0.5 µg/mL.
As to `CNc1cc(F)cc2c1[nH]c1nc(Cc3cnn(C)c3)nc(N3C[C@H]4C[C@@H]3C[C@H]4N)c12` [drawing 1734], in the assay with S. aureus ATCC 13709, the SA MIC came to 1 µg/mL. The EC8 MIC in the assay on E. coli ATCC 25922 stood at 8 µg/mL.
Taken in the same sequence, the figures for `CNc1cc(F)cc2c1[nH]c1nc(Cc3cnc(C)nc3)nc(N3CC4C(N)C4C3)c12` (stereo not shown) [drawing 1736] were at most 0.5 µg/mL and 0.25 µg/mL.
